Test results: PMC5469451, “Identification of compounds that suppress Toxoplasma gondii tachyzoites and bradyzoites” (PLoS ONE, 2017)
Where two headings read alike, the source gives them in different places. Where a SMILES comes first, the peptide text is derived from it. The star is where a group is joined. Boc = CC(C)(C)OC(=O)*

Legend:
HFF cells = experiment: Host cell cytotoxicity assay (Cell-Titer Glo), HFF cells; format: cell-based, human
Method: (§1) Vero cells and HFF cells were both used as host cells because both cell types were used for the parasite screening. After incubation for 48 h in DMEM supplemented with 5% FBS, L-glutamine, penicillin, and streptomycin, cell viabilities were measured by using a Cell-Titer Glo kit (Promega) following the manufacturer’s instructions. Control wells were treated with DMSO alone in culture medium to calculate the 100% viability for each cell type.

[1] = test system: PLK/DLUC_1C9 tachyzoites in Vero cells; experiment: Primary screening: T. gondii growth assay, Renilla luciferase; format: cell-based, Toxoplasma gondii; settings: 48 h; for inhibition at 10 µM: Toxoplasma gondii, read-out: Parasite Inhibition (%)
Method: In the primary screening, purified PLK/DLULC_1C9 tachyzoites were incubated with Vero cells at a multiplicity of infection (MOI) of 0.5. After a 2-h incubation, the infected host cells were trypsinized to obtain a cell suspension and then these suspended infected cells were inoculated into 96-well optical bottom plates containing the compound library. Each well was inoculated with 2500 cells in 25 μL of culture medium. […] Following cell inoculation, each well therefore contained 0.5% DMSO and 10 μM compound. After 48 h of culture, Renilla luciferase activity was measured by using Renilla-Glo (Promega, WI, USA) following the manufacturer’s instructions. […] The Z’-value for each plate was calculated from the Renilla luciferase activity in the negative and positive control wells.

Vero cells = experiment: Host cell cytotoxicity assay (Cell-Titer Glo), Vero cells; format: cell-based
Method: (§2) Host cells were treated with compounds at the same concentration used for screening (i.e., 0.5% DMSO and 10 μM compound). Vero cells and HFF cells were both used as host cells because both cell types were used for the parasite screening. After incubation for 48 h in DMEM supplemented with 5% FBS, L-glutamine, penicillin, and streptomycin, cell viabilities were measured by using a Cell-Titer Glo kit (Promega) following the manufacturer’s instructions. Control wells were treated with DMSO alone in culture medium to calculate the 100% viability for each cell type.

[2] = test system: RH-2F tachyzoites (type I strain) in HFF cells; experiment: Confirmatory screening: RH-2F β-galactosidase growth assay in HFF cells; format: cell-based, Toxoplasma gondii; settings: 48 h; for inhibition at 2.5 µM / inhibition at 25 µM: Toxoplasma gondii, read-out: Parasite inhibition (%)
Method: In the confirmatory screening, we utilize an RH strain β-galactosidase reporter parasite termed RH-2F (a type I strain). Briefly, RH-2F parasites were purified from freshly lysed infected host cells and used to infect confluent HFF cells cultured in 96-well plates. Five hundred parasites were added to each well, along with each test compound and 50 μL of culture medium. Plates were then incubated for 10 min at room temperature followed by an incubation at 37°C for 48 h in a CO2 incubator.
To measure the effects of tanshinone IIA and hydroxyzine on intracellular parasite growth, parasites were allowed to invade for 2 h, uninvaded parasites were washed away, and medium with compounds was added. After 48 h, the plates were frozen at -80°C. Plates were then thawed just prior to the measurement of beta-galactosidase activity. Beta-Glo (Promega) was used to measure β-galactosidase activity following the manufacturer’s instructions.

[3] = Host cell cytotoxicity assay (Cell-Titer Glo), Vero cells; format: cell-based; settings: African green monkey
Method: as §2

[4] = Host cell cytotoxicity assay (Cell-Titer Glo), HFF cells; format: cell-based, human; settings: human
Method: as §1

[5] = 10 μM, PLK/DLUC_1C9 in Vero cells, DMSO = 0%, 10 μM pyrimethamine = 100%
[6] = 2.5 μM, RH-2F in HFF, compared with 10 μM pyrimethamine
[7] = 25 μM, RH-2F in HFF, compared with 10 μM pyrimethamine
[8] = 25 μM, 48 h, HFF cells, compared with DMSO
[9] = 10 μM, 48 h, Vero cells, DMSO = 100%
[10] = 10 μM, 48 h, Vero cells, DMSO = 100%, read-out: Host Viability (%)
[11] = HFF, 2.5 μM, RH-2F in HFF, compared with 10 μM pyrimethamine
[12] = HFF, 25 μM, RH-2F in HFF, compared with 10 μM pyrimethamine

## CC(C)(C)c1ccc(C(O)CCCN2CCC(C(O)(c3ccccc3)c3ccccc3)CC2)cc1 (racemic) [(±)-Terfenadine]
HFF cells; 2.5 µM
  Host cell viability (%): 96%
HFF cells; 25 µM
  Host cell viability (%): 0.1%
[1]; [5]
  Parasite inhibition (%): 104%
Vero cells; 10 µM
  Host Viability (%): 85%
[2]; [6]
  Parasite inhibition (%): -12%
[2]; [7]
  Parasite inhibition (%): 96%

## COc1ccc(C(=O)/C(Cc2cc(OC)c(OC)c(OC)c2)=C(\C(=O)O)c2ccc3c(c2)OCO3)cc1 [(2Z)-2-(1,3-Benzodioxol-5-yl)-4-(4-methoxyphenyl)-4-oxo-3-(3,4,5-trimethoxybenzyl)-2-butenoic acid]
[1]; [5]
  inhibition at 10 µM: 93%
[3]
  viability at 48 h, 10 µM: 85%

## CCCCC/C=C\C/C=C\C/C=C\C/C=C\CCCC(=O)Nc1ccc(O)cc1 [AM404]
HFF cells; 2.5 μM, 48 h, HFF cells
  Host cell viability (%): 93%
HFF cells; [8]
  Host cell viability (%): 86%
[1]; [5]
  Parasite inhibition (%): 103%
Vero cells; [9]
  Host Viability (%): 100%
[2]; [6]
  Parasite inhibition (%): -11%
[2]; [7]
  Parasite inhibition (%): 59%

## CC(C)C[C@H]1C(=O)N2CCC[C@H]2[C@]2(O)O[C@](NC(=O)[C@@H]3C=C4c5cccc6[nH]c(Br)c(c56)C[C@H]4N(C)C3)(C(C)C)C(=O)N12 [Bromocriptine]
[4]; HFF cells, 2.5 μM, 48 h, HFF cells, read-out: Host cell viability (%)
  viability at 48 h, 2.5 µM: 98%
[4]; HFF cells, 25 μM, 48 h, HFF cells, compared with DMSO, read-out: Host cell viability (%)
  viability at 48 h, 25 µM: 93%
[1]; [5]
  inhibition at 10 µM: 105%
[3]; [10]
  viability at 48 h, 10 µM: 85%
[2]; [6]
  inhibition at 2.5 µM: -8%
[2]; [7]
  inhibition at 25 µM: 110%

## O=C(/C=C/c1ccc(O)c(O)c1)c1ccc(O)cc1O [Butein]
[4]; Host cell viability (%)
  viability at 48 h, 2.5 µM: 102%
  viability at 48 h, 25 µM: 91%
[1]; [5]
  inhibition at 10 µM: 96%
[3]
  viability at 48 h, 10 µM: 93%
[2]; [11]
  inhibition at 2.5 µM: -11%
[2]; [12]
  inhibition at 25 µM: 110%

## Clc1ccccc1C(c1ccccc1)(c1ccccc1)n1ccnc1 [Clotrimazol]
[1]; [5]
  inhibition at 10 µM: 99%
[3]
  viability at 48 h, 10 µM: 94%

## O=c1[nH]c2ccccc2n1CCCN1CCC(n2c(=O)[nH]c3cc(Cl)ccc32)CC1 [Domperidone]
[4]; Host cell viability (%)
  viability at 48 h, 2.5 µM: 94%
  viability at 48 h, 25 µM: 83%
[1]; Vero
  inhibition at 10 µM: 93%
[3]
  viability at 48 h, 10 µM: 94%
[2]; [11]
  inhibition at 2.5 µM: -7.2%
[2]; HFF
  inhibition at 25 µM: 77%

## Nc1ccccc1NC(=O)c1ccc(CNC(=O)OCc2cccnc2)cc1 [Entinostat]
[4]; Host cell viability (%)
  viability at 48 h, 2.5 µM: 92%
  viability at 48 h, 25 µM: 91%
[1]; [5]
  inhibition at 10 µM: 91%
[3]
  viability at 48 h, 10 µM: 83%
[2]; [11]
  inhibition at 2.5 µM: -20%
[2]; [12]
  inhibition at 25 µM: 60%

## OCCN1CCN(CCCN2c3ccccc3Sc3ccc(C(F)(F)F)cc32)CC1 [FLUPHENAZINE]
[4]; Host cell viability (%)
  viability at 48 h, 2.5 µM: 104%
  viability at 48 h, 25 µM: 84%
[3]
  viability at 48 h, 10 µM: 83%

## CCN(CC)CCNc1ccc(CO)c2sc3ccccc3c(=O)c12 [Hycanthone]
[1]; [5]
  inhibition at 10 µM: 97%
[3]
  viability at 48 h, 10 µM: 82%

## Clc1ccc(C(Cn2ccnc2)OCc2c(Cl)cccc2Cl)c(Cl)c1 (centres unmarked) [Isoconazole]
[1]; [5]
  inhibition at 10 µM: 104%
[3]; [10]
  viability at 10 µM: 101%

## Cc1ccc(C(=O)c2cc(/C=C/C(=O)NO)n(C)c2)cc1 [MC-1293]
HFF cells; 2.5 μM, 48 h, HFF cells
  Host cell viability (%): 98%
HFF cells; [8]
  Host cell viability (%): 95%
[1]; [5]
  Parasite inhibition (%): 103%
Vero cells; [9]
  Host Viability (%): 85%
[2]; [6]
  Parasite inhibition (%): 12%
[2]; [7]
  Parasite inhibition (%): 95%

## OC(c1cc(C(F)(F)F)nc2c(C(F)(F)F)cccc12)C1CCCCN1 (centres unmarked) [Mefloquine]
[4]; Host cell viability (%)
  viability at 48 h, 2.5 µM: 94%
  viability at 48 h, 25 µM: 48%
[1]; [5]
  inhibition at 10 µM: 101%
[3]
  viability at 48 h, 10 µM: 87%
[2]; [6]
  inhibition at 2.5 µM: 6.5%
[2]; [7]
  inhibition at 25 µM: 113%

## COc1ccc(S(=O)(=O)N(CC(=O)NO)CC(C)C)cc1 [N-Hydroxy-N2-isobutyl-N2-[(4-methoxyphenyl)sulfonyl]glycinamide]
[1]; Vero
  inhibition at 10 µM: 101%
[3]; [10]
  viability at 10 µM: 98%

## CC(C)[C@H](NC(=O)CNC(=O)OC(C)(C)C)C(=O)N[C@H](C=O)C(C)C [N-{[(2-Methyl-2-propanyl)oxy]carbonyl}glycyl-N-[(2S)-3-methyl-1-oxo-2-butanyl]-L-valinamide] (Boc-Gly-Val-Val-aldehyde)
[1]; [5]
  inhibition at 10 µM: 105%
[3]
  viability at 48 h, 10 µM: 106%

## COC(=O)C1=C(C)NC(C)=C(C(=O)OCCCN2CCC(c3ccccc3)(c3ccccc3)CC2)[C@H]1c1cccc([N+](=O)[O-])c1 [Niguldipine]
[4]
  viability at 2.5 µM: 99%
  viability at 25 µM: 84%
[1]; Vero
  inhibition at 10 µM: 103%
[3]
  viability at 10 µM: 77%
[2]; HFF
  inhibition at 2.5 µM: -19%
  inhibition at 25 µM: 96%

## COc1ccc2[nH]c([S+]([O-])Cc3ncc(C)c(OC)c3C)nc2c1 (centres unmarked) [Omeprazole]
[4]; Host cell viability (%)
  viability at 48 h, 2.5 µM: 100%
  viability at 48 h, 25 µM: 100%
[1]; Vero
  inhibition at 10 µM: 92%
[3]
  viability at 48 h, 10 µM: 97%
[2]; HFF
  inhibition at 2.5 µM: 4.3%
  inhibition at 25 µM: 44%

## O=C1[C@H]2CCCC[C@H]2C(=O)N1CCCCN1CCN(c2nsc3ccccc23)CC1 [Perospirone]
[4]; Host cell viability (%)
  viability at 48 h, 2.5 µM: 102%
  viability at 48 h, 25 µM: 101%
[1]; [5]
  inhibition at 10 µM: 100%
[3]
  viability at 48 h, 10 µM: 96%
[2]; [11]
  inhibition at 2.5 µM: 4.5%
[2]; [12]
  inhibition at 25 µM: 59%

## OCCN1CCN(CCCN2c3ccccc3Sc3ccc(Cl)cc32)CC1 [Perphenazine]
[4]; Host cell viability (%)
  viability at 48 h, 2.5 µM: 95%
  viability at 48 h, 25 µM: 65%
[1]; [5]
  inhibition at 10 µM: 104%
[3]
  viability at 48 h, 10 µM: 84%
[2]; [11]
  inhibition at 2.5 µM: -6.8%
[2]; [7]
  inhibition at 25 µM: 112%

## CC[N+](C)(CC)CCC[n+]1c(-c2ccccc2)c2cc(N)ccc2c2ccc(N)cc21.[I-].[I-] [Propidium Iodide]
[1]; [5]
  Parasite inhibition (%): 91%
Vero cells; 10 µM
  Host Viability (%): 91%

## COc1ccc(Cl)cc1NC(=O)Nc1cc(C)nc2ccccc12 [TCMDC-125497]
HFF cells; 2.5 µM
  Host cell viability (%): 99%
HFF cells; 25 µM
  Host cell viability (%): 78%
[1]; [5]
  Parasite inhibition (%): 106%
Vero cells; 10 µM
  Host Viability (%): 82%
[2]; [6]
  Parasite inhibition (%): 20%
[2]; [7]
  Parasite inhibition (%): 113%

## PENITREM A
[1]; [5]
  Parasite inhibition (%): 105%
[2]; [6]
  Parasite inhibition (%): 6.0%
[2]; [7]
  Parasite inhibition (%): 110%
